Laboratory results reported in US7306804B2 (priority 1998, dated 2007).
Where two headings read alike, the source gives them in different places.

Legend:
[1] = tested on: PBMCs from control and HIV-1 infected chimpanzees; type: cell-based, chimpanzee
[2] = tested on: anti-peptide antibodies in serum; type: binding, human; design: key to Anti-peptide antibody response: +, Positive (titer above control); −, Negative (titer below control)
[3] = tested on: PBMCs from normal and HIV-positive individuals; type: cell-based, human; settings: for number of HIV+ individuals with positive proliferative responses: 17 HIV+ individuals tested
[4] = tested on: anti-peptide antibodies in serum; type: binding, chimpanzee; design: key: +, Positive (Titer > 1:100); −, Negative (Titer < 1:100)

STRTPEDSNSLGT [c-mos peptide, reference compound]
T-cell proliferative response ([1]; chimpanzee 40, control normal): − (−, Negative (SI < 2.0)) | T-cell proliferative response ([1]; chimpanzee 62, HIV-infected): − (−, Negative (SI < 2.0)) | T-cell proliferative response ([1]; chimpanzee 69, HIV-infected): − (−, Negative (SI < 2.0)) | T-cell proliferative response ([1]; chimpanzee 73, control normal): − (−, Negative (SI < 2.0)) | T-cell proliferative response ([1]; chimpanzee 80, HIV-infected): − (−, Negative (SI < 2.0)) | T-cell proliferative response ([1]; chimpanzee 99, HIV-infected): − (−, Negative (SI < 2.0)) | T-cell proliferative response ([1]; chimpanzee 100, HIV-infected): − (−, Negative (SI < 2.0)) | T-cell proliferative response ([1]; chimpanzee 139, HIV-infected): − (−, Negative (SI < 2.0)) | SI, background level of proliferation ([1]; chimpanzee 175): 2.7 | T-cell proliferative response ([1]; chimpanzee 175, HIV-infected): + (+, Positive (Stimulation Index [SI] > 2.0)) | T-cell proliferative response ([1]; chimpanzee 247, HIV-infected): − (−, Negative (SI < 2.0)) | T-cell proliferative response ([1]; chimpanzee 310, HIV-infected): − (−, Negative (SI < 2.0)) | Anti-peptide antibody response ([2]; HIV-positive patient MSf): − | Anti-peptide antibody response ([2]; HIV-positive patient MSm): − | Anti-peptide antibody response ([2]; HIV-positive patient eight): − | Anti-peptide antibody response ([2]; HIV-positive patient eleven): − | Anti-peptide antibody response ([2]; HIV-positive patient fifteen): − | Anti-peptide antibody response ([2]; HIV-positive patient five): − | Anti-peptide antibody response ([2]; HIV-positive patient four): − | Anti-peptide antibody response ([2]; HIV-positive patient fourteen): − | Anti-peptide antibody response ([2]; HIV-positive patient nine): − | Anti-peptide antibody response ([2]; HIV-positive patient one): − | Anti-peptide antibody response ([2]; HIV-positive patient seven): − | Anti-peptide antibody response ([2]; HIV-positive patient six): − | Anti-peptide antibody response ([2]; HIV-positive patient ten): − | Anti-peptide antibody response ([2]; HIV-positive patient thirteen): − | Anti-peptide antibody response ([2]; HIV-positive patient three): − | Anti-peptide antibody response ([2]; HIV-positive patient twelve): − | Anti-peptide antibody response ([2]; HIV-positive patient two): − | Anti-peptide antibody response ([2]; Normal-1 (HIV-seronegative)): − | Anti-peptide antibody response ([2]; Normal-2 (HIV-seronegative)): − | number of HIV+ individuals with positive proliferative responses [3]: None | number of HIV+ individuals with positive proliferative responses ([3]; listed as control peptide): none | T-cell proliferative response ([3]; HIV-positive patient MSf): − (−, Negative (SI < 2.0)) | T-cell proliferative response ([3]; HIV-positive patient MSm): − (−, Negative (SI < 2.0)) | T-cell proliferative response ([3]; HIV-positive patient eight): − (−, Negative (SI < 2.0)) | T-cell proliferative response ([3]; HIV-positive patient eleven): − (−, Negative (SI < 2.0)) | T-cell proliferative response ([3]; HIV-positive patient fifteen): − (−, Negative (SI < 2.0)) | T-cell proliferative response ([3]; HIV-positive patient five): − (−, Negative (SI < 2.0)) | T-cell proliferative response ([3]; HIV-positive patient four): − (−, Negative (SI < 2.0)) | T-cell proliferative response ([3]; HIV-positive patient fourteen): − (−, Negative (SI < 2.0)) | T-cell proliferative response ([3]; HIV-positive patient nine): − (−, Negative (SI < 2.0)) | T-cell proliferative response ([3]; HIV-positive patient one): − (−, Negative (SI < 2.0)) | T-cell proliferative response ([3]; HIV-positive patient seven): − (−, Negative (SI < 2.0)) | T-cell proliferative response ([3]; HIV-positive patient six): − (−, Negative (SI < 2.0)) | T-cell proliferative response ([3]; HIV-positive patient ten): − (−, Negative (SI < 2.0)) | T-cell proliferative response ([3]; HIV-positive patient thirteen): − (−, Negative (SI < 2.0)) | T-cell proliferative response ([3]; HIV-positive patient three): − (−, Negative (SI < 2.0)) | T-cell proliferative response ([3]; HIV-positive patient twelve): − (−, Negative (SI < 2.0)) | T-cell proliferative response ([3]; HIV-positive patient two): − (−, Negative (SI < 2.0)) | T-cell proliferative response ([3]; Normal-1 (HIV-seronegative)): − (−, Negative (SI < 2.0)) | T-cell proliferative response ([3]; Normal-2 (HIV-seronegative)): − (−, Negative (SI < 2.0)) | Anti-peptide antibody response [4]: − | Anti-peptide antibody response ([4]; chimpanzee 40, control normal): − | Anti-peptide antibody response ([4]; chimpanzee 73, control normal): −

phytohemagglutinin [PHA, reference compound]
proliferation ([1]; all nine HIV-infected chimpanzees): high levels of proliferation | cpm values, proliferation ([1]; two control uninfected chimpanzees): 15832-20504 cpm | SI values, proliferation ([3]; HIV+ individuals): 20.3-23.3 | cpm values, proliferation ([3]; HIV+ individuals): 108361-127640 cpm | SI values, proliferation ([3]; normal subjects): 131-183
